Measured values reported in patent US10975093B2, “Fused 1,4-diazepines as BET protein degraders” (THE REGENTS OF THE UNIVERSITY OF MICHIGAN, priority 2016, dated 2021).

Legend:
MOLM-13 = experiment: Cell growth inhibition, CellTiter-Glo Luminescent Cell Viability Assay, MOLM-13; assay type: cell-based; settings: MOLM-13 cells, 4 days incubation
Experimental: (§1) Cell growth inhibitory activity of representative Compounds of the Disclosure was determined in various cell lines using CellTiter-Glo® Luminescent Cell Viability Assay. Cells were seeded in 384-well white opaque cell culture plates at a density of 2,000 cells/well with serially diluted compounds and incubated at 37° C. in an atmosphere of 95% air and 5% CO2 for 4 days. Cell viability was determined using the CellTiter-Glo® Luminescent Cell Viability Assay Kit (Promega, Madison, Wis.) according to the manufacture's instruction. Briefly, a volume of CellTiter-Glo® Reagent equal to the volume of cell culture medium was added to each well, and then the plates were incubated at room temperature for 10-20 minutes. The luminescent signal was measured using a Tecan Infinite M1000 multimode microplate reader (Tecan, Morrisville, N.C.). The half maximal inhibitory concentration (IC50) was calculated using the GraphPad Prism 5 software (GraphPad Software, La Jolla, Calif.).

MDA-MB-231 = experiment: Cell growth inhibition, CellTiter-Glo Luminescent Cell Viability Assay, MDA-MB-231; assay type: cell-based; settings: MDA-MB-231 cells, 4 days incubation
Experimental: as §1

IC50 (MOLM-13; Homo sapiens, MOLM-13, 96 h) [nM] | IC50 (MDA-MB-231; Homo sapiens, MDA-MB-231, 96 h) [nM] | IC50 (MOLM-13) [nM] | IC50 (MDA-MB-231) [nM] | SMILES
> 100 | > 100 |  |  | Cc1c(C#Cc2cnn(CCCn3cnc(COc4cccc5c4C(=O)N(C4CCC(=O)NC4=O)C5=O)c3)c2)sc2c1C(c1ccc(Cl)cc1)=NCc1nnc(C)n1-2 (stereo not shown) [compound 155, 4-((1-(3-(4-((4-(4-chlorophenyl)-3,9-dimethyl-6H-thieno[3,2-f][1,2,4]triazolo[4,3-a][1,4]diazepin-2-yl)ethynyl)-1H-pyrazol-1-yl)propyl)-1H-imidazol-4-yl)methoxy)-2-(2,6-dioxopiperidin-3-yl)isoindoline-1,3-dione]
> 100 | > 100 |  |  | Cc1c(C#Cc2cnn(CCn3cnc(COc4cccc5c4C(=O)N(C4CCC(=O)NC4=O)C5=O)c3)c2)sc2c1C(c1ccc(Cl)cc1)=NCc1nnc(C)n1-2 (stereo not shown) [compound 153, 4-((1-(2-(4-((4-(4-chlorophenyl)-3,9-dimethyl-6H-thieno[3,2-f][1,2,4]triazolo[4,3-a][1,4]diazepin-2-yl)ethynyl)-1H-pyrazol-1-yl)ethyl)-1H-imidazol-4-yl)methoxy)-2-(2,6-dioxopiperidin-3-yl)isoindoline-1,3-dione]
0.07 | 0.08 |  |  | Cc1c(C#Cc2cnn(CCCN3CCC(Nc4cccc5c4CN(C4CCC(=O)NC4=O)C5=O)CC3)c2)sc2c1C(c1ccc(Cl)cc1)=N[C@@H](CC(=O)N1CCN(C)CC1)c1nnc(C)n1-2 (stereo partly drawn) [compound 192, 3-(4-((1-(3-(4-(((S)-4-(4-chlorophenyl)-3,9-dimethyl-6-(2-(4-methylpiperazin-1-yl)-2-oxoethyl)-6H-thieno[3,2-f][1,2,4]triazolo[4,3-a][1,4]diazepin-2-yl)ethynyl)-1H-pyrazol-1-yl)propyl)piperidin-4-yl)amino)-1-oxoisoindolin-2-yl)piperidine-2,6-dione]
18.6 | 52.7 |  |  | Cc1c(C#Cc2cnn(CCCC#Cc3ccc4c(c3)C(=O)N(C3CCC(=O)NC3=O)C4=O)c2)sc2c1C(c1ccc(Cl)cc1)=NCc1nnc(C)n1-2 (stereo not shown) [compound 157, 5-(5-(4-((4-(4-chlorophenyl)-3,9-dimethyl-6H-thieno[3,2-f][1,2,4]triazolo[4,3-a][1,4]diazepin-2-yl)ethynyl)-1H-pyrazolo-1-yl)pent-1-yn-1-yl)-2-(2,6-dioxopiperidin-3-yl)isoindoline-1,3-dione]
> 100 | > 100 |  |  | Cc1c(C#Cc2cnn(CCn3cnc(CNc4cccc5c4CN(C4CCC(=O)NC4=O)C5=O)c3)c2)sc2c1C(c1ccc(Cl)cc1)=NCc1nnc(C)n1-2 (stereo not shown) [compound 150, 3-(4-(((1-(2-(4-((4-(4-chlorophenyl)-3,9-dimethyl-6H-thieno[3,2-f][1,2,4]triazolo[4,3-a][1,4]diazepin-2-yl)ethynyl)-1H-pyrazol-1-yl)ethyl)-1H-imidazol-4-yl)methyl)amino)-1-oxoisoindolin-2-yl)piperidine-2,6-dione]
42.6 | 58.8 |  |  | Cc1c(C#Cc2cnn(CCCC#Cc3cccc4c3C(=O)N(C3CCCNC3=O)C4=O)c2)sc2c1C(c1ccc(Cl)cc1)=N[C@@H](C)c1nnc(C)n1-2 (stereo partly drawn) [compound 160, 4-(5-(4-(((S)-4-(4-chlorophenyl)-3,6,9-trimethyl-6H-thieno[3,2-f][1,2,4]triazolo[4,3-a][1,4]diazepin-2-yl)ethynyl)-1H-pyrazol-1-yl)pent-1-yn-1-yl)-2-(2-oxopiperidin-3-yl)isoindoline-1,3-dione]
> 100 | > 100 |  |  | Cc1c(C#Cc2cnn(CCCn3cnc(CNc4cccc5c4CN(C4CCC(=O)NC4=O)C5=O)c3)c2)sc2c1C(c1ccc(Cl)cc1)=NCc1nnc(C)n1-2 (stereo not shown) [compound 151, 3-(4-(((1-(3-(4-((4-(4-chlorophneyl)-3,9-dimethyl-6H-thieno[3,2-f][1,2,4]triazolo[4,3-a][1,4]diazepin-2-yl)ethynyl)-1H-pyrazol-1-yl)propyl)-1H-imidazol-4-yl)methyl)amino)-1-oxoisoindolin-2-yl)piperidine-2,6-dione]
0.9 | 0.2 |  |  | Cc1c(C#Cc2cnn(CCCC#Cc3ccc4c(c3)CN(C3CCC(=O)NC3=O)C4=O)c2)sc2c1C(c1ccc(Cl)cc1)=N[C@@H](C)c1nnc(C)n1-2 (stereo partly drawn) [compound 179, 3-(5-(5-(4-(((S)-4-(4-chlorophenyl)-3,6,9-trimethyl-6H-thieno[3,2-f][1,2,4]triazolo[4,3-a][1,4]diazepin-2-yl)ethynyl)-1H-pyrazol-1-yl)pent-1-yn-1-yl)-1-oxoisoindolin-2-yl)piperidine-2,6-dione]

The remaining lines, values behind:

SMILES | IC50 (MOLM-13; Homo sapiens, MOLM-13, 96 h) [nM] | IC50 (MDA-MB-231; Homo sapiens, MDA-MB-231, 96 h) [nM] | IC50 (MOLM-13) [nM] | IC50 (MDA-MB-231) [nM]
Cc1c(C#Cc2cnn(C[C@H]3CC[C@H](Nc4cccc5c4CN(C4CCC(=O)NC4=O)C5=O)CC3)c2)sc2c1C(c1ccc(Cl)cc1)=N[C@@H](C)c1nnc(C)n1-2 (stereo partly drawn) [compound 171, 3-(4-(((1S,4r)-4-((4-(((S)-4-(4-chlorophenyl)-3,6,9-trimethyl-6H-thieno[3,2-f][1,2,4]triazolo[4,3-a][1,4]diazepin-2-yl)ethynyl)-1H-pyrazol-1-yl)methyl)cyclohexyl)amino)-1-oxoisoindolin-2-yl)piperidine-2,6-dione] | 0.6 | 0.9 | 0.8 | 1
Cc1c(C#Cc2cnn(CCCCOc3cccc4c3CN(C3CCC(=O)NC3=O)C4=O)c2)sc2c1C(c1ccc(Cl)cc1)=NCc1nnc(C)n1-2 (stereo not shown) [compound 146, 3-(4-(4-(4-((4-(4-chlorophenyl)-3,9-dimethyl-6H-thieno[3,2-f][1,2,4]triazolo[4,3-a][1,4]diazepin-2-yl)ethynyl)-1H-pyrazol-1-yl)butoxy)-1-oxoisoindolin-2-yl)piperidine-2,6-dione] | 1 | 1.2 |  | 
Cc1ncsc1-c1ccc([C@H](C)NC(=O)[C@@H]2C[C@@H](O)CN2C(=O)[C@@H](NC(=O)COCCCn2cc(C#Cc3sc4c(c3C)C(c3ccc(Cl)cc3)=N[C@@H](C)c3nnc(C)n3-4)cn2)C(C)(C)C)cc1 [compound 199, (2S,4R)-1-((S)-2-(2-(3-(4-(((S)-4-(4-chlorophenyl)-3,6,9-trimethyl-6H-thieno[3,2-f][1,2,4]triazolo[4,3-a][1,4]diazepin-2-yl)ethynyl)-1H-pyrazol-1-yl)propoxy)acetamido)-3,3-dimethylbutanoyl)-4-hydroxy-N-((S)-1-(4-(4-methylthiazol-5-yl)phenyl)ethyl)pyrrolidine-2-carboxamide] | 0.5 ± 0.06 | 6.7 |  | 
Cc1c(C#Cc2cnn(CCOCCOCCOCC#Cc3cccc4c3CN(C3CCC(=O)NC3=O)C4=O)c2)sc2c1C(c1ccc(Cl)cc1)=N[C@@H](CC(=O)N1CCN(C)CC1)c1nnc(C)n1-2 (stereo partly drawn) [compound 197, 3-(4-(3-(2-(2-(2-(4-(((S)-4-(4-chlorophenyl)-3,9-dimethyl-6-(2-(4-methylpiperazin-1-yl)-2-oxoethyl)-6H-thieno[3,2-f][1,2,4]triazolo[4,3-a][1,4]diazepin-2-yl)ethynyl)-1H-pyrazol-1-yl)ethoxy)ethoxy)ethoxy)prop-1-yn-1-yl)-1-oxoisoindolin-2-yl)piperidine-2,6-dione] | 1.1 | 2.5 |  | 
Cc1ncsc1-c1ccc([C@H](C)NC(=O)[C@@H]2C[C@@H](O)CN2C(=O)[C@@H](NC(=O)COCCOCCn2cc(C#Cc3sc4c(c3C)C(c3ccc(Cl)cc3)=N[C@@H](C)c3nnc(C)n3-4)cn2)C(C)(C)C)cc1 [compound 201, (2S,4R)-1-((S)-2-(2-(2-(2-(4-(((S)-4-(4-chlorophenyl)-3,6,9-trimethyl-6H-thieno[3,2-f][1,2,4]triazolo[4,3-a][1,4]diazepin-2-yl)ethynyl)-1H-pyrazol-1-yl)ethoxy)ethoxy)acetamido)-3,3-dimethylbutanoyl)-4-hydroxy-N-((S)-1-(4-(4-methylthiazol-5-yl)phenyl)ethyl)pyrrolidine-2-carboxamide] | 2.1 ± 0.32 | 24.9 |  | 
Cc1c(C#Cc2cnn(CCCCNc3cccc4c3C(=O)N(C3(F)CCC(=O)NC3=O)C4=O)c2)sc2c1C(c1ccc(Cl)cc1)=NCc1nnc(C)n1-2 (stereo not shown) [compound 144, 4-((4-(4-((4-(4-chlorophenyl)-3,9-dimethyl-6H-thieno[3,2-f][1,2,4]triazolo[4,3-a][1,4]diazepin-2-yl)ethynyl)-1H-pyrazol-1-yl)butyl)amino)-2-(3-fluoro-2,6-dioxopiperidin-3-yl)isoindoline-1,3-dione] | 6.8 | 10.1 |  | 
Cc1ncsc1-c1ccc([C@H](C)NC(=O)[C@@H]2C[C@@H](O)CN2C(=O)[C@@H](NC(=O)COCCOCCOCCn2cc(C#Cc3sc4c(c3C)C(c3ccc(Cl)cc3)=N[C@@H](C)c3nnc(C)n3-4)cn2)C(C)(C)C)cc1 [compound 200, (2S,4R)-1-((S)-2-(tert-butyl)-14-(4-(((S)-4-(4-chlorophenyl)-3,6,9-trimethyl-6H-thieno[3,2-f][1,2,4]triazolo[4,3-a][1,4]diazepin-2-yl)ethynyl)-1H-pyrazol-1-yl)-4-oxo-6,9,12-trioxa-3-azatetradecanoyl)-4-hydroxy-N-((S)-1-(4-(4-methylthiazol-5-yl)phenyl)ethyl)pyrrolidine-2-carboxamide] | 0.34 ± 0.03 | 3.1 |  | 
Cc1c(C#Cc2ccc(OCCC#Cc3cccc4c3CN(C3CCC(=O)NC3=O)C4=O)cn2)sc2c1C(c1ccc(Cl)cc1)=N[C@@H](C)c1nnc(C)n1-2 (stereo partly drawn) [Cpd. No. 16, 3-(4-(4-((6-(((S)-4-(4-chlorophenyl)-3,6,9-trimethyl-6H-thieno[3,2-f][1,2,4]triazolo[4,3-a][1,4]diazepin-2-yl)ethynyl)pyridin-3-yl)oxy)but-1-yn-1-yl)-1-oxoisoindolin-2-yl)piperidine-2,6-dione] | 1.1 | 1.7 |  | 
